Laboratory results taken from ChEMBL document CHEMBL1201862, “PubChem BioAssay data set” (2004).
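Results reflect a 48-hour exposure of cells in 96-well plates to compound at five concentrations. Abbreviation: GI50, concentration required for 50% inhibition of growth.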 The source made the active and inactive calls. No stated cut-off is given here; in the data, active = GI50 up to about 1.1 µM and inactive = higher.

Columns and labels:
Test in all cases: NCI tumour cell line growth inhibition, 48 h
COLO 205 = system: COLO 205
HCT-116 = system: HCT-116
OVCAR-5 = system: OVCAR-5
KM12 = system: KM12
NCI-H23 = system: NCI-H23
LOX IMVI = system: LOX IMVI
A498 = system: A498
SN12C = system: SN12C
EKVX = system: EKVX
OVCAR-4 = system: OVCAR-4
SW-620 = system: SW-620
Malme-3M = system: Malme-3M
DMS-114 = system: DMS-114
UACC-257 = system: UACC-257
K562 = system: K562
HOP-92 = system: HOP-92
NCI-H460 = system: NCI-H460
CAKI-1 = system: CAKI-1
A549 = system: A549

Measured: GI50

C=C(C)C1CC=C(C(=O)O)CC1 (centres undefined)
inactive: COLO 205 592 µM | HCT-116 793 µM | OVCAR-5 1660 µM | KM12 859 µM | NCI-H23 968 µM | LOX IMVI 1220 µM | A498 1210 µM | SN12C 1570 µM | EKVX 2360 µM | OVCAR-4 1760 µM | SW-620 1740 µM | Malme-3M 809 µM | DMS-114 1360 µM | UACC-257 1190 µM | K562 1200 µM | HOP-92 1440 µM | NCI-H460 1360 µM | CAKI-1 1300 µM | A549 1210 µM

O=C(Nc1ccccc1)n1cc(-c2ccccn2)c(N2CCOCC2)n1
inactive: COLO 205 5.14 µM | HCT-116 4.29 µM | KM12 1.79 µM | LOX IMVI 5.75 µM | A498 4.11 µM | SN12C 35.2 µM | EKVX > 100 µM | OVCAR-4 > 100 µM | SW-620 5.85 µM | Malme-3M 2.54 µM | DMS-114 5.36 µM | UACC-257 17.7 µM | K562 3.58 µM | HOP-92 16.9 µM | NCI-H460 4.19 µM | CAKI-1 13 µM | A549 18.8 µM

O=C(COc1ccc(Cl)cc1)N1CCN(C(=O)COc2ccc(Cl)cc2)c2ccccc21
inactive: COLO 205 45.2 µM | HCT-116 30.4 µM | OVCAR-5 70 µM | KM12 57 µM | NCI-H23 > 100 µM | LOX IMVI 91.2 µM | A498 74.8 µM | EKVX 26.3 µM | SW-620 > 100 µM | Malme-3M 36.6 µM | DMS-114 29.5 µM | UACC-257 25.2 µM | K562 37.6 µM | HOP-92 30.3 µM | NCI-H460 60.7 µM | A549 33.5 µM

N#CC1(C=O)c2ccccc2C=CN1C(=O)c1ccccc1 (centres undefined)
inactive: COLO 205 37.3 µM | HCT-116 38.6 µM | KM12 19.2 µM | NCI-H23 41.7 µM | A498 26.4 µM | SN12C 50 µM | EKVX 29.7 µM | OVCAR-4 34.9 µM | SW-620 4.3 µM | Malme-3M 30.6 µM | DMS-114 19.8 µM | UACC-257 29.8 µM | K562 29.6 µM | HOP-92 23.4 µM | NCI-H460 73.6 µM | CAKI-1 20.5 µM | A549 76.2 µM

CC1=CC(=O)NP(=O)(Oc2ccc(C)cc2)N1 (centres undefined)
inactive: COLO 205 > 100 µM | HCT-116 > 100 µM | OVCAR-5 > 100 µM | KM12 > 100 µM | NCI-H23 > 100 µM | LOX IMVI > 100 µM | A498 > 100 µM | SN12C > 100 µM | EKVX > 100 µM | OVCAR-4 > 100 µM | SW-620 > 100 µM | Malme-3M > 100 µM | DMS-114 > 100 µM | UACC-257 > 100 µM | K562 > 100 µM | HOP-92 > 100 µM | NCI-H460 > 100 µM | CAKI-1 > 100 µM

CCCOCN1COCN/C1=N\C#N
inactive: COLO 205 17.9 µM | HCT-116 84.1 µM | OVCAR-5 > 100 µM | KM12 > 100 µM | NCI-H23 > 100 µM | LOX IMVI 24.5 µM | A498 > 100 µM | SN12C > 100 µM | EKVX > 100 µM | OVCAR-4 32.1 µM | SW-620 14 µM | Malme-3M > 100 µM | DMS-114 22 µM | UACC-257 > 100 µM | K562 > 100 µM | HOP-92 > 100 µM | NCI-H460 > 100 µM | CAKI-1 > 100 µM | A549 42.3 µM

COc1ccccc1/N=N/c1c(-c2ccccc2)nn(C(=O)CC(=O)Nc2cccc(C)c2)c1-c1ccccc1
inactive: COLO 205 71.3 µM | HCT-116 28 µM | OVCAR-5 36.3 µM | KM12 26.1 µM | NCI-H23 24.1 µM | LOX IMVI 27.5 µM | A498 40 µM | SN12C 20.8 µM | EKVX 41.2 µM | OVCAR-4 28.6 µM | SW-620 41.3 µM | Malme-3M 45.6 µM | DMS-114 14.7 µM | UACC-257 27.3 µM | K562 15.7 µM | NCI-H460 27.2 µM | CAKI-1 23.3 µM | A549 26.5 µM
